Results taken from US9801856B2, “Composition of a 5-HT2A serotonin receptor modulator useful for the treatment of disorders related thereto” (Arena Pharmaceuticals, Inc., priority 2008, dated 2017).
Entries after “also recorded” stand apart in the source; their conditions may differ. One block for each compound: values may come before it.

Experiments:
[1] = Methyl cellulose optimization: Form I to Form II conversion in water pastes (PXRD); type: physicochemical
Protocol: In a small scintillation vial, 152.13 mg of micronized APD125 Form I, was spiked with sufficient deionized water to make a paste; the weight of the water added, 844.60 mg was recorded, and the resulting mixture was stirred using a spatula to obtain a paste. The resulting sample, post-collection of an initial PXRD pattern, was capped, wrapped in tinfoil and stored at 40° C. until the next day, when a second PXRD pattern was obtained.
Using another small scintillation vial, 2.1183 g of micronized APD125 Form I, was mixed with 3.3619 g of a 0.5% w/v methyl cellulose to obtain a paste, which was immediately sampled for PXRD analysis to verify starting APD125 solid-state form, post-methyl cellulose addition. The remaining sample in the scintillation vial was split into two portions, placed in capped, parafilm-wrapped scintillation vials, which were then wrapped in tinfoil and stored at 40° C. and room temperature, respectively. […]
APD125 micronized Form I/PVP (1:8) blend, weighing 3.0081 g and containing 0.5% w/w methyl cellulose, was mixed with 3.71277 g of water to form a paste. After sampling the paste for an initial PXRD pattern, the remaining paste was split into two portions, placed in capped, parafilm-wrapped scintillation vials, which were then wrapped in tinfoil and stored at 40° C. and room temperature, respectively. PXRD patterns were collected at initial (t=0), 1-day, 7-day and 21-day time points.
For each blend, materials were dispensed (minus magnesium stearate) into a glass vial and blended for about 5 minutes. Magnesium stearate was added and the mixture was blended an additional 2 minutes. The final blend was compacted into standard round concave tablets ( 5/16″ diameter) with a total tablet weight of 200 mg and hardness of 10 kp using a Carver press. For each batch of tablets, several were crushed using a mortar and pestle to obtain a fine powder, from which a small sample was taken for PXRD analysis to confirm the initial APD125 polymorphic form. The remaining powder was weighed into a Qorpak® bottle, and ca. 50% w/w deionized water was added. The resulting mixture was stirred using a micro-spatula to wet the powder and form a paste. A Teflon® lid was screwed on tightly, and the prepared samples were stored in a 40° C. oven.
(§1) PXRD measurements were obtained using a Philips (PANalytical) X'Pert PRO theta/theta diffractometer (EQ 0233) equipped with an X'Celerator RTMS detector and utilizing copper Kα radiation, operating at 45 kV and 40 mA. The instrument radius was 239.5 mm, the mask filter was 20 mm, the soller slit was 0.04 radians, and a nickel filter and sample spinning were used during data acquisition. The application and instrument control software used were X'Pert Data Collector®, version 2.0c and XPERT-PRO®, version 1.6, respectively. The API-based paste samples were scanned from 5° to 40° 2θ in continuous mode, using a step size of 0.0167° 2θ and a counting time of 40.005 seconds. The tablet granulation samples were scanned from 2° to 15° 2θ in continuous mode, using a step size of 0.0167° 2θ and a counting time of 1063.625 s.

[2] = Effect of milling and compression upon APD125 Form I (PXRD); type: physicochemical
Protocol: Micronized APD125 Form I, was ground using a mortar and pestle, with samples withdrawn at 1-min, 5-min and 10-min time points for PXRD analyses to evaluate the impact of grinding upon the solid-state form of APD125 Form I. PXRD patterns were obtained pre- and post-milling. Additionally, micronized APD125 Form I, was compressed at 2 kp, 5 kp and 10 kp for 1 min per sample using a Carver press. The samples were then removed from the Carver press and lightly broken up using a mortar and pestle, prior to PXRD analysis to evaluate the impact of compression upon the solid-state form of APD125 Form I. PXRD patterns were obtained pre- and post-compression.
as §1, with “The” for “The API-based paste”, “2θ.” for “2θ and a counting time of 40.005 seconds. The tablet granulation samples were scanned from 2° to 15° 2θ in continuous mode, using a step size of 0.0167° 2θ and a counting time of 1063.625 s.”

[3] = target: T1, 5-HT2A serotonin receptor (Homo sapiens, UniProt P28223); test: Phase 1 trials: waking EEG; type: in vivo, humans
T1 sequence (P28223 whole entry): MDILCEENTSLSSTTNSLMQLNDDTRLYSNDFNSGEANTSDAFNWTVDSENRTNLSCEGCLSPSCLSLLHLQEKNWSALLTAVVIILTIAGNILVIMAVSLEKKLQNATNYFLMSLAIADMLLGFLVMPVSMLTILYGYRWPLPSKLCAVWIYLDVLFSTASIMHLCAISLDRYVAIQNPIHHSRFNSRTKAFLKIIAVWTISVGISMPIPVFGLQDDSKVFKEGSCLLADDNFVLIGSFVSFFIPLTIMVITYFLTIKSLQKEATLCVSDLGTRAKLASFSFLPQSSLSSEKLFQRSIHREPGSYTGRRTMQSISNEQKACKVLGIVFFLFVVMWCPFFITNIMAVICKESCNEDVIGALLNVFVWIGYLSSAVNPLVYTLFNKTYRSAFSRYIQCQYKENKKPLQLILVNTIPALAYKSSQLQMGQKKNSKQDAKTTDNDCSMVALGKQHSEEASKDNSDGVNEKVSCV

[4] = target: T1, 5-HT2A serotonin receptor; test: 5-HT2A serotonin receptor inverse agonist activity; type: biochemical
[5] = Stability of APD125 in solution; type: physicochemical; settings: in solution at 25° C.
[6] = target: T1, 5-HT2A serotonin receptor; test: Afternoon nap model of insomnia in normal volunteers; type: in vivo, humans
[7] = target: T1, 5-HT2A serotonin receptor; test: Phase 2 trial: sleep maintenance versus placebo; type: in vivo, humans
[8] = Aqueous solubility of APD125; type: physicochemical
[9] = target: T1, 5-HT2A serotonin receptor; settings: cited from earlier work
[10] = tested on: JC virus; settings: cited from earlier work
[11] = target: T2, 5-HT2A (Rattus norvegicus, UniProt P14842); design: host or cells: diabetic rats, in vivo; settings: rats, cited from earlier work
T2 sequence (P14842 whole entry): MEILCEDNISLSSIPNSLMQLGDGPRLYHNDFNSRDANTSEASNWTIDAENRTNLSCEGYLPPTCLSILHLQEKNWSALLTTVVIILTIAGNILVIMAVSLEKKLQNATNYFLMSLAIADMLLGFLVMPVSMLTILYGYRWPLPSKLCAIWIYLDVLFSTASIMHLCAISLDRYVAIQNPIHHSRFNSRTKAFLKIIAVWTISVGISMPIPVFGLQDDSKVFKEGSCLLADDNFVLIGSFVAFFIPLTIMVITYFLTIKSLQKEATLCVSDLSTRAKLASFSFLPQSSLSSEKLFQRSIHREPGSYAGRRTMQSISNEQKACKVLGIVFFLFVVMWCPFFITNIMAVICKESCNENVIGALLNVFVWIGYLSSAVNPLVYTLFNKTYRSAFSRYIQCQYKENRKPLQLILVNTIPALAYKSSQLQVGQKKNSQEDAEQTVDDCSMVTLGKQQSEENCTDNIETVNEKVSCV

[12] = target: T3, 5-HT2A (Homo sapiens, UniProt P28223); design: host or cells: human patients, in vivo; settings: humans, lumbar disc herniation; cited from earlier work
T3 sequence (P28223 whole entry): as the sequence (P28223 whole entry) above

[13] = target: T3, 5-HT2A; design: host or cells: patients, in vivo; settings: 24 months of treatment; cited from earlier work
[14] = tested on: 5-HT2 receptor; settings: glaucoma patients; cited from earlier work
[15] = target: T2, 5-HT2A; settings: in vivo; cited from earlier work
[16] = target: T2, 5-HT2A; design: host or cells: diabetic rats, in vivo; settings: spontaneously hypertensive rats; cited from earlier work

polymorphic form by PXRD ([1]; aqueous 0.5% w/w methyl cellulose at 40° C. after 10 days (FIG. 8, text)): no evidence of conversion to Form II
polymorphic form by PXRD ([1]; aqueous 0.5% w/w methyl cellulose, room temperature and 40° C. after 16 days (FIG. 8 legend)): substantially converted to Form II
polymorphic form by PXRD ([1]; paste in water alone at 40° C.): converted to Form II within 24 hours
polymorphic form by PXRD ([1]; paste in water alone at room temperature and 40° C. after 24 h (FIG. 9 legend)): substantially converted to Form II
polymorphic form by PXRD ([1]; suspended in aqueous 0.5% w/w methyl cellulose, 21 days at room temperature): did not convert to Form II
Structure (SMILES): COc1ccc(NC(=O)Nc2ccc(F)cc2F)cc1-c1c(Br)cnn1C [APD125 Form I, 1-[3-(4-bromo-2-methyl-2H-pyrazol-3-yl)-4-methoxy-phenyl]-3-(2,4-difluoro-phenyl)-urea]
PXRD pattern after compression ([2]; compressed at 2 kp, 5 kp and 10 kp): all substantially comprise Form I; also recorded: consistent with APD125 Form I
PXRD pattern after grinding ([2]; mortar and pestle for 1 minute, 5 minutes and 10 minutes, listed as micronized APD125 Form I): all substantially comprise Form I; also recorded: No significant changes in the PXRD patterns were observed

dose of maximal effects on waking EEG [3]: 40 to 80 mg
effects on waking EEG [3]: vigilance-lowering effects
time of peak effects after dosing ([3]; waking EEG): 2 to 4 h
stability in solution [5]: somewhat labile
REM sleep ([6]; human, in vivo): at the expense of REM sleep
microarousals, number of sleep stage shifts and number of awakenings after sleep onset ([6]; human, in vivo): decreased
sleep onset latency ([6]; human, in vivo): not decreased
measurements of sleep maintenance ([7]; compared to placebo): statistically significant improvements
solubility ([8]; aqueous buffer, phosphate buffer (about pH 7)): ≤ 10 µg/mL
solubility ([8]; deionized water, water): ≤ 10 µg/mL
solubility ([8]; saline (about 0.9% NaCl solution), saline or isotonic): ≤ 10 µg/mL
solubility ([8]; simulated gastric fluid, 0.01 N HCl (about pH 2)): ≤ 10 µg/mL
Structure (SMILES): COc1ccc(NC(=O)Nc2ccc(F)cc2F)cc1-c1c(Br)cnn1C [APD125, 1-[3-(4-bromo-2-methyl-2H-pyrazol-3-yl)-4-methoxy-phenyl]-3-(2,4-difluoro-phenyl)-urea]
activity at the 5-HT2A serotonin receptor [4]: potent and selective 5-HT2A serotonin receptor inverse agonist
slow wave sleep and associated parameters ([6]; primarily during the early part of sleep): increased slow wave sleep and associated parameters in a dose-dependent manner
next day cognitive effects ([7]; in vivo): without any limiting next day cognitive effects

Structure (SMILES): Cc1nc2sccn2c(=O)c1CCN1CCC(=C(c2ccc(F)cc2)c2ccc(F)cc2)CC1 [ritanserin]
activity at 5-HT2A [9]: inverse agonist activity
JC virus infection of human glial cells [10]: inhibited

Structure (SMILES): COc1cccc(CCc2ccccc2OCC(CN(C)C)OC(=O)CCC(=O)O)c1 (stereo not shown) [sarpogrelate]
thermal induced pain ([11]; intraperitoneal administration): significant analgesic effect
inflammatory pain ([11]; intrathecal or intraperitoneal administration): significant analgesic effect
lower back pain, leg pain and numbness associated with sciatica [12]: effective treatment
urinary albumin excretion level [13]: significantly reduced
IOP [14]: significantly lower IOP

Structure (SMILES): O=C(c1ccc(F)cc1)C1CCN(CCn2c(=O)[nH]c3ccccc3c2=O)CC1 [ketanserin]
IOP [14]: significantly lower IOP
protection during heatstroke [15]: protect against circulatory shocks, intracranial hypertension and cerebral ischemia during heatstroke
activity at 5-HT2A [9]: inverse agonist activity
JC virus infection of human glial cells [10]: inhibited
blood pressure [16]: stabilize blood pressure
